This is an account of results in US12558342B2, “2-[2-({12,12-dimethyl-4-oxo-6-phenyl-3,11-dioxatricyclo[8.4.0.0,2,7]tetradeca-1,5,7,9-tetraen-8-yl}oxy)acetamido]benzamide and derivatives as inhibitor of clock:bmal1 interaction for the treatment of circadian rhythm diseases and disorders” (KOC UNIVERSITESI, priority 2019, dated 2026).

Each structure is given as a SMILES string.

In assay [1] the test system is Per1::dluc NIH 3T3 cells. The experiment in a line: Real-time monitoring of circadian rhythm, Per1::dluc NIH 3T3. Format: cell-based, mouse. How it is done:
We used Bmal1::dluc U2-OS and Per1::dluc NIH 3T3, and continuously monitored the bioluminescence to record circadian rhythm. This experiment was performed in 96-well plates (triplicates) and 35-mm dishes (duplicates) in the secondary screen and detailed characterization steps respectively. Briefly, cells were seeded to reach confluency. A day after, the medium was replaced with DMEM containing 0.1 μM Dexamethasone to synchronize cells. […] The 96-well plates were covered and bioluminescence was monitored by Synergy H1 Hybrid Multi-Mode Reader every 32 minutes. […] Bioluminescence was recorded every 10 minutes for 4-6 days. […] The first day's data was excluded from the analysis due to transient perturbations of luminescence after the medium change.
We used Bmal1::dluc U2-OS and Per1::dluc NIH 3T3, and continuously monitored the bioluminescence to record circadian rhythm. […] The 96-well plates were covered and bioluminescence was monitored by Synergy H1 Hybrid Multi-Mode Reader every 32 minutes. […] Bioluminescence was recorded every 10 minutes for 4-6 days. […] The first day's data was excluded from the analysis due to transient perturbations of luminescence after the medium change.

Assay [2] concerns the target T1, CLOCK-F80A-K220A and BMAL1 interaction (Homo sapiens, UniProt O15516, F80A/K220A).
T1 construct: expressed in transfected cells; host or cells: HEK 293T
T1 sequence (O15516 1-846 F80A/K220A): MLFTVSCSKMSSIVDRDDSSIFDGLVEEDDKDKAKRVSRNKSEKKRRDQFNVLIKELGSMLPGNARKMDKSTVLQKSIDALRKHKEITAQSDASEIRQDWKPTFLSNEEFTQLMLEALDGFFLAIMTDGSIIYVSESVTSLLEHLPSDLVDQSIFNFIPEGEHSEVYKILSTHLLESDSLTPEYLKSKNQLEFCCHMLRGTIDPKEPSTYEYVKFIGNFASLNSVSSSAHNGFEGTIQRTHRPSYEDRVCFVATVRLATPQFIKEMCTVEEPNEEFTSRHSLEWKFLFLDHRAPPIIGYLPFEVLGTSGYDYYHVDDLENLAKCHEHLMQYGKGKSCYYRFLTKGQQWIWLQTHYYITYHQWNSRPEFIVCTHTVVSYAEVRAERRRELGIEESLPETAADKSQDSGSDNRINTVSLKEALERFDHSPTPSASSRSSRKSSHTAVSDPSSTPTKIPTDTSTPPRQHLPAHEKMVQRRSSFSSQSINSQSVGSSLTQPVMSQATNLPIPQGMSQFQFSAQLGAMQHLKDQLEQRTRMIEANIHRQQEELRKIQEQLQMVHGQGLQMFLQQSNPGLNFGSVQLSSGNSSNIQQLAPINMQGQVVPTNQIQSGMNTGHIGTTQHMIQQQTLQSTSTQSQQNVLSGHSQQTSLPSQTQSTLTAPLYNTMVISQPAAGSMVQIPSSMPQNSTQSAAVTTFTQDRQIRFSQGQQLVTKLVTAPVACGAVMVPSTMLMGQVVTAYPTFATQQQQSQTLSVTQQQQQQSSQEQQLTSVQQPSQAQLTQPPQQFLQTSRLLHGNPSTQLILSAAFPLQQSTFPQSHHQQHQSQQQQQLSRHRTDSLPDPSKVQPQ
Briefly: Co-immunoprecipitation of FLAG-CLOCK-F80A-K220A and BMAL1. The class given is biochemical. The following applies: 40 μM. How it is done:
HEK 293T cells co-expressing wild type or F80A-K220A mutant FLAG-tagged Clock together with tag-free Bmal1 were lysed with ice-cold lysis buffer (50 mM Tris-HCl PH 7.7, 150 mM NaCl, 0.1% Triton X-100, 1 mM PMSF and protease inhibitor cocktail) and centrifuged at 15000×g at 4° C. for 20 minutes. DMSO and different concentrations of CLK8 were added to the whole cell lysate. The mixtures were incubated with anti-FLAG M2 affinity gel (Sigma-Aldrich) at 4° C. overnight with continuous mixing. After three wash steps, bound proteins were eluted with Laemmli buffer heated at 95° C. for 7 minutes. CLOCK and BMAL1 were detected by monoclonal anti-FLAG M2 antibody (Sigma-Aldrich) and anti-BMAL1 (Santa Cruz Biotechnology) respectively. The amount of co-precipitated BMAL1 was normalized with the amount of precipitated CLOCK.
HEK 293T cells co-expressing wild type or F80A-K220A mutant FLAG-tagged Clock together with tag-free Bmal1 were lysed with ice-cold lysis buffer (50 mM Tris-HCl pH 7.7, 150 mM NaCl, 0.1% Triton X-100, 1 mM PMSF and protease inhibitor cocktail) and centrifuged at 15000×g at 4° C. for 20 minutes. DMSO and different concentrations of CLK8 were added to the whole cell lysate. […] CLOCK and BMAL1 were detected by monoclonal anti-FLAG M2 antibody (Sigma-Aldrich) and anti-BMAL1 (Santa Cruz Biotechnology) respectively. […]

With `CC1(C)CCc2c(cc(OCC(=O)Nc3ccccc3C(N)=O)c3c(-c4ccccc4)cc(=O)oc23)O1` [CLK8, 2-[2-({12,12-dimethyl-4-oxo-6-phenyl-3,11-dioxatricyclo [8.4.0.0,2,7]tetradeca-1,5,7,9-tetraen-8-yl}oxy)acetamido] benzamide], in assay [1], the “period of circadian rhythm” value was “no period changes”. Further, the “amplitude of circadian rhythm” value in assay [1] (dose dependent) is reported as “enhances the amplitude”. For the same compound, in assay [2], the “interaction between CLOCK-F80A-K220A and BMAL1” value is “not affected”.
